As usually defined, the inhibition is the relative decrease from the control value, in per cent. A word on the IC50: it is the midpoint of a concentration-inhibition curve.

In this assay the test system is IPF-rc-stimulated primary human small airway epithelial cells (SAEC). Put plainly: Biomarker release of IPF-rc-stimulated small airway epithelial cells (ELISA of supernatants). The assay is classed as cell-based. To be noted: for inhibition at 10 µM / IC50: Homo sapiens; for inhibition at 10 µM: SAEC, highest concentration 10 μM; for IC50: SAEC from 5 donors, 30 min pre-stimulation, supernatants 72 hrs after stimulation. On the procedure:
Small airway epithelial cells of primary human origin at passage 4 were seeded in PneumaCult-Ex Plus complete medium onto rat tail collagen type I (30 μg/mL in PBS) coated 24-well plates.
After incubation for 24 hrs at 37° C. and 5% CO2 cells were pre-stimulated with the PDE4-inhibitor of formula A′ for 30 min in different concentrations in PneumaCult-Ex Plus starving medium.
Afterwards an IPF-relevant cytokine cocktail (Schruf E, Schroeder V, Le H Q, Schönberger T, Raedel D, Stewart E L, Fundel-Clemens K, Bluhmki T, Weigle S, Schuler M, Thomas M J, Heilker R, Webster M J, Dass M, Frick M, Stierstorfer B, Quast K, Garnett J P. Recapitulating idiopathic pulmonary fibrosis related alveolar epithelial dysfunction in a human iPSC-derived air-liquid interface model. FASEB J. 2020 June; 34(6):7825-7846) was added to induce fibrotic changes. 72 hrs after stimulation supernatants were collected and analyzed using R&D DuoSet ELISAs following the manufacturers protocol.
To determine the inhibitory potency of the PDE4-inhibitor of formula A′ on biomarker release of IPF-rc-stimulated primary human small airway epithelial cells, the supernatants of the cell culture from 5 different donors were analyzed.
In general terms: ELISA stands for enzyme-linked immunosorbent assay.

Where two headings read alike, the source gives them in different places.

Take `[O-][S@+]1CCc2nc(N3CCC(c4ncc(Cl)cn4)CC3)nc(NC3(CO)CCC3)c21` [Compound of formula A′]: the inhibition at 10 µM by setting is: (read-out: maximal inhibition of CTGF release) 75%; (read-out: maximal inhibition of MMP7 release) 63%; (read-out: maximal inhibition of OPN release) 67%; (read-out: maximal inhibition of sICAM release) 39%. The concentration for half-maximal inhibition (IC50) (read-out: IC50 of IPF-rc-induced release of CTGF) was around 370 nM, the IC50 (read-out: IC50 of IPF-rc-induced release of MMP7) is around 4400 nM, the IC50 (read-out: IC50 of IPF-rc-induced release of OPN) was around 1100 nM and the IC50 (read-out: IC50 of IPF-rc-induced release of sICAM) is around 537 nM. For the same molecule, under “IPF-rc-stimulated SAEC”, the “inhibition of the release of PAI1 (plasminogen activator inhibitor 1)” value was “concentration dependent manner”.

These data come from US20240142467A1, “Use of Biomarkers in the Treatment of Fibrotic Conditions with a PDE4B-inhibitor” (Boehringer Ingelheim International GmbH, priority 2022, published 2024).
